The text below walks through data of patent publication US20110143948A1, “MOLECULAR SIGNATURES AND BIOMARKERS ASSOCIATED WITH MELANOMA AND METHODS OF USE THEREOF” (priority 2008, published 2011).

This data set deals with ncRNAs (SEQ ID NO 28-89). Nature of the data set: ncRNA arrays of melanocytes, keratinocytes, normal skin, melanoma cell lines and patient samples. More on the design: species or system human. The conditions noted are these: for ncRNA array expression, patient 2: melanoma patient 2 sample compared to normal skin; for ncRNA array expression, patient 3: melanoma patient 3 sample compared to normal skin; for ncRNA array expression, patient 4: melanoma patient 4 sample compared to normal skin; for ncRNA array expression, patient 5: melanoma patient 5 sample compared to normal skin; for ncRNA array expression, patient 6: melanoma patient 6 sample compared to normal skin; for ncRNA array expression, patient 7: melanoma patient 7 sample compared to normal skin; for ncRNA array expression, patient 8: melanoma patient 8 sample compared to normal skin; for ncRNA array expression, patient 9: melanoma patient 9 sample compared to normal skin; for ncRNA array expression, patient 10: melanoma patient 10 sample compared to normal skin; for ncRNA array expression, patient 19: melanoma patient 19 sample compared to normal skin; for ncRNA array expression, patient 20: melanoma patient 20 sample compared to normal skin; for ncRNA array expression, patient 21: melanoma patient 21 sample compared to normal skin; for ncRNA array expression, patient 22: melanoma patient 22 sample compared to normal skin; for ncRNA array expression, patient 23: melanoma patient 23 sample compared to normal skin; for ncRNA array expression, patient 24: melanoma patient 24 sample compared to normal skin; for ncRNA array expression, patient 25: melanoma patient 25 sample compared to normal skin; for ncRNA array expression, patient 26: melanoma patient 26 sample compared to normal skin; for ncRNA array expression, patient 27: melanoma patient 27 sample compared to normal skin; for ncRNA array expression, patient 28: melanoma patient 28 sample compared to normal skin; for ncRNA array expression, patient 29: melanoma patient 29 sample compared to normal skin; for ncRNA array expression, patient 30: melanoma patient 30 sample compared to normal skin. The gist of the method: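 Differential ncRNA expression was defined against melanocytes or normal skin after subtracting keratinocyte-specific signals, with confirmation by qRT-PCR and Northern blot. Samples were melanoma cell lines, patient tumours, melanocytes, keratinocytes and normal skin, hybridised to a >10,000-probe (>200 nt) ncRNA array that also carries RefSeq mRNA probes.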

Take “SEQ ID NO 58 (ATTTATTTGACTCTAAAATGACAATATAACAACTATAAGGAATTGATATGATGTCCTTAC; listed as DNA, chemistry not given here; listed as Homo sapiens)”: the “ncRNA array expression, patient 2” value was −1.675; the “ncRNA array expression, patient 3” value is listed as −1.723; the “ncRNA array expression, patient 4” value was −0.4325; the “ncRNA array expression, patient 5” value is −1.707. The “ncRNA array expression, patient 6” value is listed as −1.802; the “ncRNA array expression, patient 7” value is recorded as −1.2619; the “ncRNA array expression, patient 8” value is given as −1.825; the “ncRNA array expression, patient 9” value is on record as −1.569. Further, the “ncRNA array expression, patient 10” value is on record as −1.223; the “ncRNA array expression, patient 19” value is recorded as −1.471; the “ncRNA array expression, patient 20” value was −1.134; the “ncRNA array expression, patient 21” value is recorded as −1.719. Moreover, the “ncRNA array expression, patient 22” value is −1.28; the “ncRNA array expression, patient 23” value is −1.756; the “ncRNA array expression, patient 24” value was −1.757; the “ncRNA array expression, patient 25” value is given as −1.52. For the same substance, the “ncRNA array expression, patient 26” value is reported as −1.463; the “ncRNA array expression, patient 27” value is −1.595; the “ncRNA array expression, patient 28” value is reported as −1.708; the “ncRNA array expression, patient 29” value is −1.543. In addition, the “ncRNA array expression, patient 30” value is listed as −1.631.

On to “SEQ ID NO 59 (TGTGCAGCAGTATCAAAGGTCCTTAAATTCTCAACAATGAAGGAAAAACAAAAACCCATT; listed as DNA, chemistry not given here; listed as Homo sapiens)”, for which the “ncRNA array expression, patient 2” value is −0.9339; the “ncRNA array expression, patient 3” value was −1.02; the “ncRNA array expression, patient 4” value was −1.168; the “ncRNA array expression, patient 5” value is reported as −1.255. The “ncRNA array expression, patient 6” value was −1.212; the “ncRNA array expression, patient 7” value was −0.9325; the “ncRNA array expression, patient 8” value is listed as −0.9937; the “ncRNA array expression, patient 9” value is reported as −1.258. Also, the “ncRNA array expression, patient 10” value is recorded as −0.9688; the “ncRNA array expression, patient 19” value is −1.202; the “ncRNA array expression, patient 20” value was −1.14; the “ncRNA array expression, patient 21” value is listed as −1.263. The “ncRNA array expression, patient 22” value is listed as −0.5383; the “ncRNA array expression, patient 23” value was −1.165; the “ncRNA array expression, patient 24” value is listed as −1.154; the “ncRNA array expression, patient 25” value is −0.9916. For the same substance, the “ncRNA array expression, patient 26” value was −0.8776; the “ncRNA array expression, patient 27” value is reported as −1.161; the “ncRNA array expression, patient 28” value is given as −1.232; the “ncRNA array expression, patient 29” value is −1.077. For the same substance, the “ncRNA array expression, patient 30” value is −1.04.

On to “SEQ ID NO 60 (ACTAACAGCACTGGAGGGTGTAGTGTTTCCTACTTTATGGATGAGTGTACTGTGGGCTTC; listed as DNA, chemistry not given here; listed as Homo sapiens)”, for which the “ncRNA array expression, patient 2” value amounted to 2.776; the “ncRNA array expression, patient 3” value was 2.279; the “ncRNA array expression, patient 4” value was 2.327; the “ncRNA array expression, patient 5” value was 0.8655. Moreover, the “ncRNA array expression, patient 6” value is listed as −1.218; the “ncRNA array expression, patient 7” value amounted to 2.958; the “ncRNA array expression, patient 8” value stood at 0.3154; the “ncRNA array expression, patient 9” value was 1.739. The “ncRNA array expression, patient 10” value is recorded as 2.002; the “ncRNA array expression, patient 19” value turned out to be 0.3888; the “ncRNA array expression, patient 20” value was found to be 2.119; the “ncRNA array expression, patient 21” value amounted to 0.7491. The “ncRNA array expression, patient 22” value stood at 3.236; the “ncRNA array expression, patient 23” value is reported as 1.416; the “ncRNA array expression, patient 24” value stood at 1.295; the “ncRNA array expression, patient 25” value is 1.226. The “ncRNA array expression, patient 26” value is recorded as 1.537; the “ncRNA array expression, patient 27” value is reported as 1.485; the “ncRNA array expression, patient 28” value is 0.6983; the “ncRNA array expression, patient 29” value turned out to be 1.398. In addition, the “ncRNA array expression, patient 30” value is listed as 0.02973.

Consider “SEQ ID NO 61 (CATACATTGCCCTCACTAATCAATGGACATTTCAGCATTTCATTACTAATTTTGAGAGAA; listed as DNA, chemistry not given here; listed as Homo sapiens)”, for which the “ncRNA array expression, patient 2” value stood at 1.244; the “ncRNA array expression, patient 3” value was determined as 1.117; the “ncRNA array expression, patient 4” value is given as 1.12; the “ncRNA array expression, patient 5” value was found to be 3.917. Moreover, the “ncRNA array expression, patient 6” value amounted to 0.992; the “ncRNA array expression, patient 7” value came to 2.069; the “ncRNA array expression, patient 8” value came out at 1.86; the “ncRNA array expression, patient 9” value came to 1.694. Besides, the “ncRNA array expression, patient 10” value came out at 3.678; the “ncRNA array expression, patient 19” value was 0.6865; the “ncRNA array expression, patient 20” value is listed as −0.03568; the “ncRNA array expression, patient 21” value amounted to 1.984. For the same substance, the “ncRNA array expression, patient 22” value is on record as −0.1143; the “ncRNA array expression, patient 23” value came to 0.5527; the “ncRNA array expression, patient 24” value was determined as 3.802; the “ncRNA array expression, patient 25” value came out at 2.349. The “ncRNA array expression, patient 26” value was determined as 2.817; the “ncRNA array expression, patient 27” value came out at 1.264; the “ncRNA array expression, patient 28” value worked out at 2.585; the “ncRNA array expression, patient 29” value amounted to 3.112. Further, the “ncRNA array expression, patient 30” value is 0.254.

As for “SEQ ID NO 62 (AATCGTTAATATCATTGATATTAAGTAATTTCCCCACTCTGAGTGAATACTTTGATGATG; listed as DNA, chemistry not given here; listed as Homo sapiens)”, the “ncRNA array expression, patient 2” value amounted to 1.565; the “ncRNA array expression, patient 3” value is 1.466; the “ncRNA array expression, patient 4” value was found to be 3.47; the “ncRNA array expression, patient 5” value came out at 1.994. For the same substance, the “ncRNA array expression, patient 6” value worked out at 0.5751; the “ncRNA array expression, patient 7” value was determined as 2.152; the “ncRNA array expression, patient 8” value is 0.2609; the “ncRNA array expression, patient 9” value was 0.5801. Besides, the “ncRNA array expression, patient 10” value came out at 1.264; the “ncRNA array expression, patient 19” value amounted to 1.414; the “ncRNA array expression, patient 20” value was 1.836; the “ncRNA array expression, patient 21” value is recorded as 0.6984. The “ncRNA array expression, patient 22” value was determined as 0.4968; the “ncRNA array expression, patient 23” value was −0.5784; the “ncRNA array expression, patient 24” value is given as 3.5; the “ncRNA array expression, patient 25” value is on record as 3.363. Further, the “ncRNA array expression, patient 26” value turned out to be 2.394; the “ncRNA array expression, patient 27” value was 1.855; the “ncRNA array expression, patient 28” value amounted to 1.418; the “ncRNA array expression, patient 29” value came to 1.3702. In addition, the “ncRNA array expression, patient 30” value is on record as −1.545.

In the case of “SEQ ID NO 63 (CTCACACGCACCCTTTCACTGTTTCTTAGTAATTTGTTTGTCTACAGACACAGACGGGAA; listed as DNA, chemistry not given here; listed as Homo sapiens)”, the “ncRNA array expression, patient 2” value is on record as −1.694; the “ncRNA array expression, patient 3” value is recorded as −1.565; the “ncRNA array expression, patient 4” value is −1.396; the “ncRNA array expression, patient 5” value is recorded as −1.315. The “ncRNA array expression, patient 6” value is given as −0.5921; the “ncRNA array expression, patient 7” value was −1.305; the “ncRNA array expression, patient 8” value is reported as −1.26; the “ncRNA array expression, patient 9” value was −1.429. Further, the “ncRNA array expression, patient 10” value is given as −1.417; the “ncRNA array expression, patient 19” value is −1.154; the “ncRNA array expression, patient 20” value was −1.232; the “ncRNA array expression, patient 21” value was −1.397. Moreover, the “ncRNA array expression, patient 22” value was −0.3562; the “ncRNA array expression, patient 23” value is listed as −0.04699; the “ncRNA array expression, patient 24” value is −1.093; the “ncRNA array expression, patient 25” value was −2.099. Further, the “ncRNA array expression, patient 26” value was −2.008; the “ncRNA array expression, patient 27” value is listed as −1.525; the “ncRNA array expression, patient 28” value was −1.601; the “ncRNA array expression, patient 29” value was −1.862. Besides, the “ncRNA array expression, patient 30” value amounted to 1.622.

As to “SEQ ID NO 64 (TTGCCTAGGAACAAAGAAGGCTTGTGAGGAGATCAAGGAACTTACATGAAATTGTAGGAA; listed as DNA, chemistry not given here; listed as Homo sapiens)”, the “ncRNA array expression, patient 2” value came to 2.496; the “ncRNA array expression, patient 3” value is listed as 1.673; the “ncRNA array expression, patient 4” value is reported as 4.824; the “ncRNA array expression, patient 5” value is 1.546. The “ncRNA array expression, patient 6” value stood at 1.8; the “ncRNA array expression, patient 7” value amounted to 1.389; the “ncRNA array expression, patient 8” value stood at 2.2638; the “ncRNA array expression, patient 9” value turned out to be 1.339. For the same substance, the “ncRNA array expression, patient 10” value came out at 2.481; the “ncRNA array expression, patient 19” value is recorded as 0.2184; the “ncRNA array expression, patient 20” value turned out to be 2.311; the “ncRNA array expression, patient 21” value was found to be 2.601. Moreover, the “ncRNA array expression, patient 22” value came out at 1.302; the “ncRNA array expression, patient 23” value is on record as 0.9911; the “ncRNA array expression, patient 24” value was 2.424; the “ncRNA array expression, patient 25” value was 2.502. Moreover, the “ncRNA array expression, patient 26” value was determined as 2.729; the “ncRNA array expression, patient 27” value turned out to be 2.69; the “ncRNA array expression, patient 28” value is 2.932; the “ncRNA array expression, patient 29” value is given as 1.473. Further, the “ncRNA array expression, patient 30” value is recorded as −2.097.
